From patent US20260007681A1, “INDOLE DERIVATIVES AS ESTROGEN RECEPTOR DEGRADERS” (REGENTS OF THE UNIVERSITY OF MICHIGAN, priority 2022, published 2026) come the findings set out here.

Test [1] is described as follows: Cell growth assay (WST-8) (Compounds B1-B278). The format is cell-based. The following applies: 96 h; T47D cell line; WST-8, 4 days; read-out: Cell Growth Inhibition in T47D cell line IC50. Put shortly:
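Cells seeded at 1500/well overnight, treated one day later with compound doses for 4 days, then 10% WST-8 added for 2.5 h at 37° C in CO2. Absorbance at 450 nm, expressed relative to vehicle control over three independent repeats.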
(Tetrazolium assays rely on reduction of a dye to a coloured formazan, in cell work by metabolically active cells.)

The target in test [2] is ER (Homo sapiens (Human), UniProt P03372). In words: In-cell western blot analysis of relative ER percentage (Compounds B1-B278). The following applies: ER degradation, 16 hours, read-out: ICW DC50. The format is cell-based. The method, boiled down: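 Cells seeded at 40,000 or 10,000 cells/well and treated with compound (final 0.5% DMSO) for 16 h, then formaldehyde-fixed, Triton-permeabilized and co-stained for ER and GAPDH with 680/800 secondaries; LI-COR plate read. ER level expressed relative to untreated/DMSO-treated wells set at 100%.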
ER, sequence (P03372 whole entry): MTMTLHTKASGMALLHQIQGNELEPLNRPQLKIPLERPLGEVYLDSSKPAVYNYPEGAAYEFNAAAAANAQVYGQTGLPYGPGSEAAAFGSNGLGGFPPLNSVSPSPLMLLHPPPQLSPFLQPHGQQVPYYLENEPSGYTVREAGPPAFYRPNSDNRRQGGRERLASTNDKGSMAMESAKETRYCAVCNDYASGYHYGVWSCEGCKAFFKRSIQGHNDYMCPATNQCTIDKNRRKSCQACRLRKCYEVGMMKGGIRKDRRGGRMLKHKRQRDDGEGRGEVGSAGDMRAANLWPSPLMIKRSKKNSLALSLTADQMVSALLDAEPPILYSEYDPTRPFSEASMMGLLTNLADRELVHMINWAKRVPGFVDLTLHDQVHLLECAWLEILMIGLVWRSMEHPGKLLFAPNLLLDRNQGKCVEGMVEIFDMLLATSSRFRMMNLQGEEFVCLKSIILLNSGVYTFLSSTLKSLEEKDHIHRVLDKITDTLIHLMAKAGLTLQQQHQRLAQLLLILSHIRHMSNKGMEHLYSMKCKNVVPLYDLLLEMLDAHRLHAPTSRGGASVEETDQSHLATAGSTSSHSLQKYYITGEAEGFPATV

A word on the IC50: it is the concentration needed to halve the response being measured. As a reminder, the DC50 is the midpoint of the concentration-degradation curve. As for `C[C@@H]1Cc2c([nH]c3ccccc23)[C@@H](c2cnc(N3CCC4(CC3)CC(CN3CCN5c6ccc7c(c6OC[C@H]5C3)CN(C3CCC(=O)NC3=O)C7=O)CO4)nc2)N1CC(C)(C)F` (stereo partly drawn) [Compound B168, 3-((5aR)-7-((8-(5-((1R,3R)-2-(2-fluoro-2-methylpropyl)-3-methyl-2,3,4,9-tetrahydro-1H-pyrido[3,4-b]indol-1-yl)pyrimidin-2-yl)-1-oxa-8-azaspiro[4.5]decan-3-yl)methyl)-1-oxo-1,3,5,5a,6,7,8,9-octahydro-2H-pyrazino[1′,2′:4,5][1,4]oxazino[2,3-e]isoindol-2-yl)piperidine-2,6-dione], in test [1], the IC50 lay in the range of 1 to 10 nM. For the same compound, the DC50 in test [2] is less than 10 nM.

Regarding `C[C@@H]1Cc2c([nH]c3ccccc23)[C@@H](c2ccc(N3CCC4(CC3)CC(CN3CCN5c6ccc7c(c6OC[C@H]5C3)CN(C3CCC(=O)NC3=O)C7=O)C4)nc2)N1CC(F)F` (stereo partly drawn) [Compound B169, 3-((R)-7-((7-(5-((1R,3R)-2-(2,2-difluoroethyl)-3-methyl-2,3,4,9-tetrahydro-1H-pyrido[3,4-b]indol-1-yl)pyridin-2-yl)-7-azaspiro[3.5]nonan-2-yl)methyl)-1-oxo-1,3,5,5a,6,7,8,9-octahydro-2H-pyrazino[1′,2′:4,5][1,4]oxazino[2,3-e]isoindol-2-yl)piperidine-2,6-dione], in test [1], the IC50 was 1 to 10 nM. The DC50 in test [2] was more than 100 nM.

For the compound `COc1cc(N2CCC3(CCN(C(=O)CN4Cc5cc6c(cc5C4)C(=O)N(C4CCC(=O)NC4=O)C6=O)CC3)CC2)ccc1[C@@H]1c2[nH]c3ccccc3c2C[C@@H](C)N1CC(C)(C)F` (stereo partly drawn) [Compound B170, 2-(2,6-dioxopiperidin-3-yl)-6-(2-(9-(4-((1R,3R)-2-(2-fluoro-2-methylpropyl)-3-methyl-2,3,4,9-tetrahydro-1H-pyrido[3,4-b]indol-1-yl)-3-methoxyphenyl)-3,9-diazaspiro[5.5]undecan-3-yl)-2-oxoethyl)-6,7-dihydropyrrolo[3,4-f]isoindole-1,3(2H,5H)-dione], the IC50 in test [1] was 1 to 10 nM. Also, the DC50 in test [2] is more than 100 nM.

In the case of `C[C@@H]1Cc2c([nH]c3ccccc23)[C@@H](c2cnc(N3CCC4(CC3)CC(CN3CCN5c6cc7c(cc6OC[C@@H]5C3)C(=O)N(C3CCC(=O)NC3=O)C7)CO4)nc2)N1CC(F)(F)CO` (stereo partly drawn) [Compound B171, 3-((4aS)-3-((8-(5-((1R,3R)-2-(2,2-difluoro-3-hydroxypropyl)-3-methyl-2,3,4,9-tetrahydro-1H-pyrido[3,4-b]indol-1-yl)pyrimidin-2-yl)-1-oxa-8-azaspiro[4.5]dccan-3-yl)methyl)-8-oxo-1,2,3,4,4a,5,8,10-octahydro-9H-pyrazino[1′,2′:4,5][1,4]oxazino[2,3-f]isoindol-9-yl)piperidine-2,6-dione], the IC50 in test [1] is more than 10 nM. Besides, in test [2], the DC50 was less than 10 nM.

As for `C[C@@H]1Cc2c([nH]c3ccccc23)[C@@H](c2cnc(N3CCC4(CC3)CC(CN3CCN5c6ccc7c(c6OC[C@H]5C3)CN(C3CCC(=O)NC3=O)C7=O)CO4)nc2)N1CC(F)(F)CO` (stereo partly drawn) [Compound B172, 3-((5aR)-7-((8-(5-((1R,3R)-2-(2,2-difluoro-3-hydroxypropyl)-3-methyl-2,3,4,9-tetrahydro-1H-pyrido[3,4-b]indol-1-yl)pyrimidin-2-yl)-1-oxa-8-azaspiro[4.5]decan-3-yl)methyl)-1-oxo-1,3,5,5a,6,7,8,9-octahydro-2H-pyrazino[1′,2′:4,5][1,4]oxazino[2,3-e]isoindol-2-yl)piperidine-2,6-dione], in test [1], the half-maximal inhibitory concentration (IC50) is less than 1 nM. Further, the DC50 in test [2] is more than 100 nM.

With `C[C@@H]1Cc2c([nH]c3ccccc23)[C@@H](c2c(F)cc(N3CCC(CN4CCN5c6c(ccc7c6CN(C6CCC(=O)NC6=O)C7=O)OC[C@@H]5C4)CC3)cc2F)N1CC(F)F` (stereo partly drawn) [Compound B173, 3-((S)-9-((1-(4-((1R,3R)-2-(2,2-difluoroethyl)-3-methyl-2,3,4,9-tetrahydro-1H-pyrido[3,4-b]indol-1-yl)-3,5-difluorophenyl)piperidin-4-yl)methyl)-3-oxo-1,3,7,7a,8,9,10,11-octahydro-2H-pyrazino[1′,2′:4,5][1,4]oxazino[3,2-e]isoindol-2-yl)piperidine-2,6-dione], the IC50 in test [1] was less than 1 nM. In addition, the DC50 in test [2] is more than 100 nM.

Turning to `C[C@@H]1Cc2c([nH]c3ccccc23)[C@@H](c2c(F)cc(N3CCC4(CC3)CN(C(=O)CN3CCN5c6ccc7c(c6OC[C@H]5C3)CN(C3CCC(=O)NC3=O)C7=O)C4)cc2F)N1CC(F)F` (stereo partly drawn) [Compound B174, 3-((R)-7-(2-(7-(4-((1R,3R)-2-(2,2-difluoroethyl)-3-methyl-2,3,4,9-tetrahydro-1H-pyrido[3,4-b]indol-1-yl)-3,5-difluorophenyl)-2,7-diazaspiro[3.5]nonan-2-yl)-2-oxoethyl)-1-oxo-1,3,5,5a,6,7,8,9-octahydro-2H-pyrazino[1′,2′:4,5][1,4]oxazino[2,3-e]isoindol-2-yl)piperidine-2,6-dione], the IC50 in test [1] is less than 1 nM. Further, in test [2], the DC50 was less than 10 nM.

Take `C[C@@H]1Cc2c([nH]c3ccccc23)[C@@H](c2cnc(N3CCC4(CC3)CN(CC(=O)N3CCN5c6ccc7c(c6OC[C@H]5C3)CN(C3CCC(=O)NC3=O)C7=O)C4)nc2)N1CC(F)(F)F` (stereo partly drawn) [Compound B175, 3-((R)-7-(2-(7-(5-((1R,3R)-3-methyl-2-(2,2,2-trifluoroethyl)-2,3,4,9-tetrahydro-1H-pyrido[3,4-b]indol-1-yl)pyrimidin-2-yl)-2,7-diazaspiro[3.5]nonan-2-yl)acetyl)-1-oxo-1,3,5,5a,6,7,8,9-octahydro-2H-pyrazino[1′,2′:4,5][1,4]oxazino[2,3-e]isoindol-2-yl)piperidine-2,6-dione]: in test [1], the concentration for half-maximal inhibition (IC50) was in the range of 1 to 10 nM. The half-maximal degradation concentration (DC50) in test [2] was less than 10 nM.

In the case of `C[C@@H]1Cc2c([nH]c3ccccc23)[C@@H](c2cnc(N3CCC4(CC3)CN(C(=O)CN3CCN5c6ccc7c(c6OC[C@H]5C3)CN(C3CCC(=O)NC3=O)C7=O)C4)nc2)N1CC(F)F` (stereo partly drawn) [Compound B176, 3-((R)-7-(2-(7-(5-((1R,3R)-2-(2,2-difluoroethyl)-3-methyl-2,3,4,9-tetrahydro-1H-pyrido[3,4-b]indol-1-yl)pyrimidin-2-yl)-2,7-diazaspiro[3.5]nonan-2-yl)-2-oxoethyl)-1-oxo-1,3,5,5a,6,7,8,9-octahydro-2H-pyrazino[1′,2′:4,5][1,4]oxazino[2,3-e]isoindol-2-yl)piperidine-2,6-dione], the IC50 in test [1] is 1 to 10 nM. In addition, in test [2], the half-maximal degradation concentration (DC50) was less than 10 nM.

With `C[C@@H]1Cc2c([nH]c3ccccc23)[C@@H](c2c(F)cc(N3CCC4(CC3)CN(CC(=O)N3CCN5c6ccc7c(c6OC[C@H]5C3)CN(C3CCC(=O)NC3=O)C7=O)C4)cc2F)N1CC(F)F` (stereo partly drawn) [Compound B177, 3-((R)-7-(2-(7-(4-((1R,3R)-2-(2,2-difluoroethyl)-3-methyl-2,3,4,9-tetrahydro-1H-pyrido[3,4-b]indol-1-yl)-3,5-difluorophenyl)-2,7-diazaspiro[3.5]nonan-2-yl)acetyl)-1-oxo-1,3,5,5a,6,7,8,9-octahydro-2H-pyrazino[1′,2′:4,5][1,4]oxazino[2,3-e]isoindol-2-yl)piperidine-2,6-dione], in test [1], the IC50 was less than 1 nM. In test [2], the half-maximal degradation concentration (DC50) is 10 to 100 nM.

With `C[C@@H]1Cc2c([nH]c3ccccc23)[C@@H](c2cnc(N3CC4(CC(CN5CCN6c7ccc8c(c7OC[C@H]6C5)CN(C5CCC(=O)NC5=O)C8=O)C4)C3)nc2)N1CC(C)(F)F` (stereo partly drawn) [Compound B178, 3-((R)-7-((2-(5-((1R,3R)-2-(2,2-difluoropropyl)-3-methyl-2,3,4,9-tetrahydro-1H-pyrido[3,4-b]indol-1-yl)pyrimidin-2-yl)-2-azaspiro[3.3]heptan-6-yl)methyl)-1-oxo-1,3,5,5a,6,7,8,9-octahydro-2H-pyrazino[1′,2′:4,5][1,4]oxazino[2,3-e]isoindol-2-yl)piperidine-2,6-dione], the IC50 in test [1] fell in the range of 1 to 10 nM. In addition, the DC50 in test [2] fell in the range of 10 to 100 nM.

`C[C@@H]1Cc2c([nH]c3ccccc23)[C@@H](c2cnc(N3CC4(CC(CN5CCN6c7ccc8c(c7OC[C@H]6C5)CN(C5CCC(=O)NC5=O)C8=O)C4)C3)nc2)N1CC(F)F` (stereo partly drawn) [Compound B179, 3-((R)-7-((2-(5-((1R,3R)-2-(2,2-difluoroethyl)-3-methyl-2,3,4,9-tetrahydro-1H-pyrido[3,4-b]indol-1-yl)pyrimidin-2-yl)-2-azaspiro[3.3]heptan-6-yl)methyl)-1-oxo-1,3,5,5a,6,7,8,9-octahydro-2H-pyrazino[1′,2′:4,5][1,4]oxazino[2,3-e]isoindol-2-yl)piperidine-2,6-dione]: in test [1], the IC50 was more than 10 nM. Further, in test [2], the DC50 fell in the range of 10 to 100 nM.

Regarding `C[C@@H]1Cc2c([nH]c3ccccc23)[C@@H](c2cnc(N3CCC4(CC3)CC(CN3CCN5c6ccc7c(c6OC[C@H]5C3)CN(C3CCC(=O)NC3=O)C7=O)C4)nc2)N1CC(C)(C)F` (stereo partly drawn) [Compound B180, 3-((R)-7-((7-(5-((1R,3R)-2-(2-fluoro-2-methylpropyl)-3-methyl-2,3,4,9-tetrahydro-1H-pyrido[3,4-b]indol-1-yl)pyrimidin-2-yl)-7-azaspiro[3.5]nonan-2-yl)methyl)-1-oxo-1,3,5,5a,6,7,8,9-octahydro-2H-pyrazino[1′,2′:4,5][1,4]oxazino[2,3-e]isoindol-2-yl)piperidine-2,6-dione], the IC50 in test [1] is 1 to 10 nM. For the same compound, in test [2], the DC50 was less than 10 nM.

Turning to `C[C@@H]1Cc2c([nH]c3ccccc23)[C@@H](c2cnc(N3CCC4(CC3)CC(CN3CCN5c6ccc7c(c6OC[C@H]5C3)CN(C3CCC(=O)NC3=O)C7=O)C4)nc2)N1CC(F)F` (stereo partly drawn) [Compound B181, 3-((R)-7-((7-(5-((1R,3R)-2-(2,2-difluoroethyl)-3-methyl-2,3,4,9-tetrahydro-1H-pyrido[3,4-b]indol-1-yl)pyrimidin-2-yl)-7-azaspiro[3.5]nonan-2-yl)methyl)-1-oxo-1,3,5,5a,6,7,8,9-octahydro-2H-pyrazino[1′,2′:4,5][1,4]oxazino[2,3-e]isoindol-2-yl)piperidine-2,6-dione], the IC50 in test [1] was less than 1 nM. For the same compound, the DC50 in test [2] was less than 10 nM.
